Data: PubChem BioAssay (NCI)
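Five concentrations, 48 hours, 96-well plates. Here, GI50 denotes the concentration required for 50% inhibition of growth. TGI: concentration producing complete growth inhibition.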

Key:
Assay in all cases: growth of human tumour cells (NCI), 48 h
RPMI-8226 leukemia = tested on: RPMI-8226 leukemia
OVCAR-5 ovarian = tested on: OVCAR-5 ovarian
NCI-H23 lung = tested on: NCI-H23 lung
SF-268 CNS = tested on: SF-268 CNS
HCC-2998 colon = tested on: HCC-2998 colon
SNB-19 CNS = tested on: SNB-19 CNS
SK-MEL-5 melanoma = tested on: SK-MEL-5 melanoma
DU-145 prostate = tested on: DU-145 prostate
SW-620 colon = tested on: SW-620 colon
MALME-3M melanoma = tested on: MALME-3M melanoma
UO-31 renal = tested on: UO-31 renal
CCRF-CEM leukemia = tested on: CCRF-CEM leukemia
IGROV1 ovarian = tested on: IGROV1 ovarian
OVCAR-3 ovarian = tested on: OVCAR-3 ovarian
UACC-257 melanoma = tested on: UACC-257 melanoma
HT29 colon = tested on: HT29 colon
M14 melanoma = tested on: M14 melanoma
786-0 renal = tested on: 786-0 renal
KM12 colon = tested on: KM12 colon
MDA-MB-231 breast = tested on: MDA-MB-231 breast
A549 NSCLC = tested on: A549 NSCLC
HCT-15 colon = tested on: HCT-15 colon
MOLT-4 leukemia = tested on: MOLT-4 leukemia
ACHN renal = tested on: ACHN renal
PC-3 prostate = tested on: PC-3 prostate
K-562 leukemia = tested on: K-562 leukemia
SNB-75 CNS = tested on: SNB-75 CNS
BT-549 breast = tested on: BT-549 breast
SK-OV-3 ovarian = tested on: SK-OV-3 ovarian
T-47D breast = tested on: T-47D breast
NCI/ADR-RES ovarian = tested on: NCI/ADR-RES ovarian
COLO 205 colon = tested on: COLO 205 colon
MDA-MB-435 = tested on: MDA-MB-435
RXF 393 renal = tested on: RXF 393 renal
LOX IMVI melanoma = tested on: LOX IMVI melanoma
CAKI-1 renal = tested on: CAKI-1 renal
HCT-116 colon = tested on: HCT-116 colon
NCI-H226 lung = tested on: NCI-H226 lung
UACC-62 melanoma = tested on: UACC-62 melanoma
HS 578T breast = tested on: HS 578T breast
SK-MEL-28 melanoma = tested on: SK-MEL-28 melanoma
OVCAR-8 ovarian = tested on: OVCAR-8 ovarian
HOP-92 NSCLC = tested on: HOP-92 NSCLC
SF-295 CNS = tested on: SF-295 CNS
NCI-H522 lung = tested on: NCI-H522 lung
SF-539 CNS = tested on: SF-539 CNS
HOP-62 NSCLC = tested on: HOP-62 NSCLC
SR leukemia = tested on: SR leukemia
SN12C renal = tested on: SN12C renal
SK-MEL-2 melanoma = tested on: SK-MEL-2 melanoma
EKVX NSCLC = tested on: EKVX NSCLC
NCI-H460 lung = tested on: NCI-H460 lung
TK-10 renal = tested on: TK-10 renal
HL-60(TB) leukemia = tested on: HL-60(TB) leukemia
OVCAR-4 ovarian = tested on: OVCAR-4 ovarian
U251 CNS = tested on: U251 CNS
MCF7 breast = tested on: MCF7 breast

With `C/C=C/[C@@H]1O[C@@H]2COC(=O)C2=C[C@@H]1O` the GI50 (RPMI-8226 leukemia) was 2.55 µM, the TGI (RPMI-8226 leukemia) was 7.18 µM and the GI50 (OVCAR-5 ovarian) was 19.2 µM. For the same compound, the TGI (OVCAR-5 ovarian) was 37.1 µM, the GI50 (NCI-H23 lung) was 14.1 µM and the TGI (NCI-H23 lung) was 37.3 µM. For the same compound, the GI50 (SF-268 CNS) was 24.2 µM, the TGI (SF-268 CNS) was 63.9 µM and the GI50 (HCC-2998 colon) was 24.1 µM. The TGI (HCC-2998 colon) was 48.8 µM, the GI50 (SNB-19 CNS) was 24.2 µM and the TGI (SNB-19 CNS) was > 57 µM. The GI50 (SK-MEL-5 melanoma) was 16.7 µM, the TGI (SK-MEL-5 melanoma) was 31.5 µM and the GI50 (DU-145 prostate) was 5.03 µM. The TGI (DU-145 prostate) was 18.8 µM, the GI50 (SW-620 colon) was 2.13 µM and the TGI (SW-620 colon) was 5.07 µM. For the same compound, the GI50 (MALME-3M melanoma) was 1.96 µM, the TGI (MALME-3M melanoma) was 6.85 µM and the GI50 (UO-31 renal) was 4.21 µM. The TGI (UO-31 renal) was > 51.6 µM, the GI50 (CCRF-CEM leukemia) was 2.94 µM and the TGI (CCRF-CEM leukemia) was > 100 µM. For the same compound, the GI50 (IGROV1 ovarian) was 18.6 µM, the TGI (IGROV1 ovarian) was > 84 µM and the GI50 (OVCAR-3 ovarian) was 4.19 µM. The TGI (OVCAR-3 ovarian) was 22.2 µM, the GI50 (UACC-257 melanoma) was 21 µM and the TGI (UACC-257 melanoma) was 36.9 µM. For the same compound, the GI50 (HT29 colon) was 5.73 µM, the TGI (HT29 colon) was 46 µM and the GI50 (M14 melanoma) was 13.7 µM. For the same compound, the TGI (M14 melanoma) was 35.3 µM, the GI50 (786-0 renal) was 6.79 µM and the TGI (786-0 renal) was 21.1 µM. It also gave a GI50 (KM12 colon) of 20.5 µM, a TGI (KM12 colon) of 53.2 µM and a GI50 (MDA-MB-231 breast) of 19.6 µM. For the same compound, the TGI (MDA-MB-231 breast) was 39.7 µM, the GI50 (A549 NSCLC) was 20.6 µM and the TGI (A549 NSCLC) was 40.4 µM. It also gave a GI50 (HCT-15 colon) of 16.9 µM, a TGI (HCT-15 colon) of 39.8 µM and a GI50 (MOLT-4 leukemia) of 2.2 µM. For the same compound, the GI50 (ACHN renal) was 3.58 µM, the TGI (ACHN renal) was 13.4 µM and the GI50 (PC-3 prostate) was 18.7 µM. It also gave a TGI (PC-3 prostate) of 36.6 µM, a GI50 (K-562 leukemia) of 2.53 µM and a GI50 (SNB-75 CNS) of 28.5 µM. For the same compound, the TGI (SNB-75 CNS) was 54 µM, the GI50 (BT-549 breast) was 3.59 µM and the TGI (BT-549 breast) was 15.2 µM. For the same compound, the GI50 (SK-OV-3 ovarian) was 25.9 µM, the TGI (SK-OV-3 ovarian) was > 58.4 µM and the GI50 (T-47D breast) was 6.31 µM. For the same compound, the TGI (T-47D breast) was 24.2 µM, the GI50 (NCI/ADR-RES ovarian) was 25.9 µM and the TGI (NCI/ADR-RES ovarian) was 60.5 µM. The GI50 (COLO 205 colon) was 2.78 µM, the TGI (COLO 205 colon) was > 19.6 µM and the GI50 (MDA-MB-435) was 18.8 µM. For the same compound, the TGI (MDA-MB-435) was 37.3 µM, the GI50 (RXF 393 renal) was 15 µM and the TGI (RXF 393 renal) was 39.7 µM. The GI50 (LOX IMVI melanoma) was 17.5 µM, the TGI (LOX IMVI melanoma) was 36.1 µM and the GI50 (CAKI-1 renal) was 2.14 µM. The TGI (CAKI-1 renal) was 5.03 µM, the GI50 (HCT-116 colon) was 2.06 µM and the TGI (HCT-116 colon) was 8.79 µM. For the same compound, the GI50 (NCI-H226 lung) was 17.6 µM, the TGI (NCI-H226 lung) was 42 µM and the GI50 (UACC-62 melanoma) was 17.5 µM. For the same compound, the TGI (UACC-62 melanoma) was 34.6 µM, the GI50 (HS 578T breast) was 23.4 µM and the TGI (HS 578T breast) was 58.2 µM. For the same compound, the GI50 (SK-MEL-28 melanoma) was 15.3 µM, the TGI (SK-MEL-28 melanoma) was 32.9 µM and the GI50 (OVCAR-8 ovarian) was 23.3 µM. For the same compound, the TGI (OVCAR-8 ovarian) was 51.8 µM, the GI50 (HOP-92 NSCLC) was 0.747 µM and the TGI (HOP-92 NSCLC) was 9.35 µM. The GI50 (SF-295 CNS) was 29.9 µM, the TGI (SF-295 CNS) was > 56.4 µM and the GI50 (NCI-H522 lung) was 3.95 µM. For the same compound, the TGI (NCI-H522 lung) was > 29.1 µM, the GI50 (SF-539 CNS) was 2.78 µM and the TGI (SF-539 CNS) was 8.14 µM. The GI50 (HOP-62 NSCLC) was 23.5 µM, the TGI (HOP-62 NSCLC) was 43 µM and the GI50 (SR leukemia) was 9.61 µM. The TGI (SR leukemia) was > 100 µM, the GI50 (SN12C renal) was 15.4 µM and the TGI (SN12C renal) was 31.4 µM. The GI50 (SK-MEL-2 melanoma) was 33.1 µM, the TGI (SK-MEL-2 melanoma) was > 79.7 µM and the GI50 (EKVX NSCLC) was 17.5 µM. The TGI (EKVX NSCLC) was 36.7 µM, the GI50 (NCI-H460 lung) was > 57.7 µM and the TGI (NCI-H460 lung) was > 100 µM. For the same compound, the GI50 (TK-10 renal) was 6.43 µM, the TGI (TK-10 renal) was 20.5 µM and the GI50 (HL-60(TB) leukemia) was 10.6 µM. The TGI (HL-60(TB) leukemia) was > 100 µM, the GI50 (OVCAR-4 ovarian) was 16.1 µM and the TGI (OVCAR-4 ovarian) was 42.8 µM. For the same compound, the GI50 (U251 CNS) was 18.9 µM, the TGI (U251 CNS) was 38.3 µM and the GI50 (MCF7 breast) was 33.5 µM. For the same compound, the TGI (MCF7 breast) was > 100 µM.
